In general, IC50 refers to the concentration needed to halve the response being measured. Low readings indicate greater potency, high ones weaker potency.

The source of these data is patent publication US20240158393A1, “PYRIDONE COMPOUNDS AND METHODS OF USE” (Exelixis, Inc., priority 2021, published 2024).

SMILES strings stand for the structures. Structures can show the parent of a compound that is named as a salt.

The assay concerns the target T1, Human Mer (Homo sapiens, UniProt Q12866).
T1 construct: Human Mer (residues R557-E882 with H628Q and R794A, 0.7 nM); purchased Eurofins Pharma Discovery Services UK Limited (KinaseProfiler service)
T1 sequence (Q12866 557-882 limits assumed): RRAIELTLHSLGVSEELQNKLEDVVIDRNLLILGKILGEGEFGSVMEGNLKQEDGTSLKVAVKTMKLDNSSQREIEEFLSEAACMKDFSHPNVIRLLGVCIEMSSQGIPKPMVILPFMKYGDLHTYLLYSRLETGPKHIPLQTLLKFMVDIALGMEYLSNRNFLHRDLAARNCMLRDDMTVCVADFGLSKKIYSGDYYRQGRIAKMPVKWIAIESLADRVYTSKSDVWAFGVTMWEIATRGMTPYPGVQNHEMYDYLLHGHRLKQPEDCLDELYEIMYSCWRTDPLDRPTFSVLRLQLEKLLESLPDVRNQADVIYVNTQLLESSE
Put plainly: Human Mer kinase assay (33P radiometric / HTRF KinEase). Particulars: protocols of Examples C-1 and/or C-2. The class given is biochemical. In a few lines: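 Two formats yield IC50 values. HTRF KinEase used MER residues 528-999 with ATP at Km (40 μM), 1 μM biotin-peptide, 60 min RT, […], 10 concentrations. 33P filter assay used 0.7 nM Mer R557-E882 (H628Q/R794A), 10 μM ATP, 250 μM peptide, 40 min RT, top 1 μM.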
(TR-FRET usually uses a lanthanide donor and a delayed reading to cut background.)
Consider `COc1cc2nccc(Oc3ccc(NC(=O)c4c(C)nc(C)c(C5=CCCCC5)c4O)cc3F)c2nc1OC` [Compound 2-3, 5-(Cyclohexen-1-yl)-N-[4-[(6,7-dimethoxy-1,5-naphthyridin-4-yl)oxy]-3-fluorophenyl]-4-hydroxy-2,6-dimethylpyridine-3-carboxamide], for which the IC50 is no more than 100 nM.

For `COc1cc2nccc(Oc3ccc(NC(=O)c4c5n(c(C)c(C6=CCOCC6)c4=O)CCOC5)cc3F)c2nc1OC` [Compound 79, 7-(3,6-Dihydro-2H-pyran-4-yl)-N-[4-[(6,7-dimethoxy-1,5-naphthyridin-4-yl)oxy]-3-fluorophenyl]-6-methyl-8-oxo-3,4-dihydro-1H-pyrido[2,1-c][1,4]oxazine-9-carboxamide], the half-maximal inhibitory concentration (IC50) was no more than 100 nM.

As to `COc1cnc2c(Oc3ccc(NC(=O)c4cnc(C)c(C5=CCOCC5)c4O)cc3)ccnc2c1` [Compound 7, 5-(3,6-Dihydro-2H-pyran-4-yl)-4-hydroxy-N-[4-[(7-methoxy-1,5-naphthyridin-4-yl)oxy]phenyl]-6-methylpyridine-3-carboxamide], the 50% inhibitory concentration (IC50) was no more than 100 nM.

In turn, `COc1cc2nccc(Oc3ccc(NC(=O)c4cn(CCF)c(C)c(C5=CCCC5)c4=O)cc3F)c2nc1OC` [Compound 11, 5-(Cyclopenten-1-yl)-N-[4-[(6,7-dimethoxy-1,5-naphthyridin-4-yl)oxy]-3-fluorophenyl]-1-(2-fluoroethyl)-6-methyl-4-oxopyridine-3-carboxamide] came in with a 50% inhibitory concentration (IC50) of no more than 100 nM.

As for `C=C(C)c1c(C)nc(C)c(C(=O)Nc2cc(F)c(Oc3ccnc4cc(OC)c(OC)nc34)cc2F)c1O` [Compound 6, N-[4-[(6,7-Dimethoxy-1,5-naphthyridin-4-yl)oxy]-2,5-difluorophenyl]-4-hydroxy-2,6-dimethyl-5-prop-1-en-2-ylpyridine-3-carboxamide], the IC50 is no more than 100 nM.

The molecule `COc1cnc2c(Oc3ccc(NC(=O)c4cn(C)c(C)c(C5=CCOCC5)c4=O)cc3F)ccnc2c1` [Compound 12, 5-(3,6-Dihydro-2H-pyran-4-yl)-N-[3-fluoro-4-[(7-methoxy-1,5-naphthyridin-4-yl)oxy]phenyl]-1,6-dimethyl-4-oxopyridine-3-carboxamide] returned a 50% inhibitory concentration (IC50) of no more than 100 nM.

`CNC(=O)c1c(C)nc(C)c(C(=O)Nc2ccc(Oc3ccnc4cc(OC)c(OC)nc34)c(F)c2)c1O` [Compound 97, 3-N-[4-[(6,7-Dimethoxy-1,5-naphthyridin-4-yl)oxy]-3-fluorophenyl]-4-hydroxy-5-N,2,6-trimethylpyridine-3,5-dicarboxamide] yielded an IC50 greater than 300 nM.

`COc1cc2nccc(Oc3ccc(NC(=O)c4c(C)nc(C)c(C(N)=O)c4O)cc3)c2nc1OC` [Compound 85, 3-N-[4-[(6,7-Dimethoxy-1,5-naphthyridin-4-yl)oxy]phenyl]-4-hydroxy-2,6-dimethylpyridine-3,5-dicarboxamide] yielded a half-maximal inhibitory concentration (IC50) greater than 300 nM.

The molecule `COc1cc2nccc(Oc3ccc(NC(=O)c4cnc(C)c(C5=CCCC5)c4O)cc3F)c2cc1OC` [Compound 18, 5-(Cyclopenten-1-yl)-N-[4-(6,7-dimethoxyquinolin-4-yl)oxy-3-fluorophenyl]-4-hydroxy-6-methylpyridine-3-carboxamide] had an IC50 of no more than 100 nM.

As for `COc1cc2nccc(Oc3ccc(NC(=O)c4cn(C)c(C)c(C5CCCC5)c4=O)cc3F)c2nc1OC` [Compound 2, 5-Cyclopentyl-N-[4-[(6,7-dimethoxy-1,5-naphthyridin-4-yl)oxy]-3-fluorophenyl]-1,6-dimethyl-4-oxopyridine-3-carboxamide], the IC50 was no more than 100 nM.

In turn, `COc1cc2nccc(Oc3ccc(NC(=O)c4c(C)n(C)c(C)c(/C=C/C5CC5)c4=O)cc3F)c2nc1OC` [Compound 50, 5-[(E)-2-Cyclopropylethenyl]-N-[4-[(6,7-dimethoxy-1,5-naphthyridin-4-yl)oxy]-3-fluorophenyl]-1,2,6-trimethyl-4-oxopyridine-3-carboxamide] showed an IC50 of no more than 100 nM.

`COCCOc1cc2nccc(Oc3ccc(NC(=O)c4c(C)n(C)c(C)c(/C=C/C5CC5)c4=O)cc3F)c2nc1OC` [Compound 51, 5-[(E)-2-Cyclopropylethenyl]-N-[3-fluoro-4-[[6-methoxy-7-(2-methoxyethoxy)-1,5-naphthyridin-4-yl]oxy]phenyl]-1,2,6-trimethyl-4-oxopyridine-3-carboxamide] came in with an IC50 of no more than 100 nM.

In turn, `COCCOc1cc2nccc(Oc3ccc(NC(=O)c4c(C)nc(C)c(C5=CCOCC5)c4O)cc3F)c2nc1OC` [Compound 43, 5-(3,6-Dihydro-2H-pyran-4-yl)-N-[3-fluoro-4-[[6-methoxy-7-(2-methoxyethoxy)-1,5-naphthyridin-4-yl]oxy]phenyl]-4-hydroxy-2,6-dimethylpyridine-3-carboxamide] showed a half-inhibitory concentration (IC50) of no more than 100 nM.

`COc1cc2nccc(Oc3ccc(NC(=O)c4c(C)nc(C)c(C5=CCCC5)c4O)cc3F)c2nc1OC` [Compound 1-2, 5-(Cyclopenten-1-yl)-N-[4-[(6,7-dimethoxy-1,5-naphthyridin-4-yl)oxy]-3-fluorophenyl]-4-hydroxy-2,6-dimethylpyridine-3-carboxamide hydrochloride] registered an IC50 of no more than 100 nM.

In turn, `COCCOc1cc2nccc(Oc3ccc(NC(=O)c4cnc(C)c(/C=C/C(C)(C)C)c4O)cc3F)c2nc1OC` [Compound 40, 5-[(E)-3,3-Dimethylbut-1-enyl]-N-[3-fluoro-4-[[6-methoxy-7-(2-methoxyethoxy)-1,5-naphthyridin-4-yl]oxy]phenyl]-4-hydroxy-6-methylpyridine-3-carboxamide] came in with an IC50 of no more than 100 nM.

In turn, `COc1cnc2c(Oc3ccc(NC(=O)c4cnc(C)c(C5=CCCC5)c4O)cc3F)ccnc2c1` [Compound 1-9, 5-(Cyclopenten-1-yl)-N-[3-fluoro-4-[(7-methoxy-1,5-naphthyridin-4-yl)oxy]phenyl]-4-hydroxy-6-methylpyridine-3-carboxamide] displayed an IC50 of no more than 100 nM.

In turn, `COc1cc2nccc(Oc3ccc(NC(=O)c4c(C)cc(C)n(C5=CCCC5)c4=O)cc3F)c2nc1OC` [Compound 14, 1-(Cyclopenten-1-yl)-N-[4-[(6,7-dimethoxy-1,5-naphthyridin-4-yl)oxy]-3-fluorophenyl]-4,6-dimethyl-2-oxopyridine-3-carboxamide] registered an IC50 of no more than 100 nM.

In turn, `COc1cc2nccc(Oc3ccc(NC(=O)c4c(C)n(C)c(C)c(N5CCOCC5)c4=O)cc3F)c2nc1OC` [Compound 88, N-[4-[(6,7-Dimethoxy-1,5-naphthyridin-4-yl)oxy]-3-fluorophenyl]-1,2,6-trimethyl-5-morpholin-4-yl-4-oxopyridine-3-carboxamide] came in with an IC50 of no more than 100 nM.

As for `COc1cc2nccc(Oc3ccc(NC(=O)c4c(C)nc(C)c(C#N)c4O)cc3F)c2nc1OC` [Compound 87, 5-Cyano-N-[4-[(6,7-dimethoxy-1,5-naphthyridin-4-yl)oxy]-3-fluorophenyl]-4-hydroxy-2,6-dimethylpyridine-3-carboxamide], the concentration for half-maximal inhibition (IC50) was greater than 300 nM.

Regarding `COc1cc2nccc(Oc3ccc(NC(=O)c4c(C)nc(C)c(C(C)C)c4O)cc3)c2nc1OC` [Compound 9, N-[4-[(6,7-Dimethoxy-1,5-naphthyridin-4-yl)oxy]phenyl]-4-hydroxy-2,6-dimethyl-5-propan-2-ylpyridine-3-carboxamide], the 50% inhibitory concentration (IC50) is no more than 100 nM.

Consider `COCCOc1cc2nccc(Oc3ccc(NC(=O)c4cnc(C)c(C5=CCCCC5)c4O)cc3F)c2nc1OC` [Compound 34, 5-(Cyclohexen-1-yl)-N-[3-fluoro-4-[[6-methoxy-7-(2-methoxyethoxy)-1,5-naphthyridin-4-yl]oxy]phenyl]-4-hydroxy-6-methylpyridine-3-carboxamide], for which the IC50 was no more than 100 nM.

In turn, `COc1cc2nccc(Oc3ccc(NC(=O)c4cnc(C)c(C5=CCCCC5)c4O)cc3)c2cc1OC` [Compound 24, 5-(Cyclohexen-1-yl)-N-[4-(6,7-dimethoxyquinolin-4-yl)oxyphenyl]-4-hydroxy-6-methylpyridine-3-carboxamide] returned an IC50 of no more than 100 nM.

As to `COCCOc1cc2nccc(Oc3ccc(NC(=O)c4c(C)n(C)c(C)c(C5=CCCC5)c4=O)cc3F)c2nc1OC` [Compound 42, 5-(Cyclopenten-1-yl)-N-[3-fluoro-4-[[6-methoxy-7-(2-methoxyethoxy)-1,5-naphthyridin-4-yl]oxy]phenyl]-1,2,6-trimethyl-4-oxopyridine-3-carboxamide], the concentration for half-maximal inhibition (IC50) was no more than 100 nM.

Molecule `COc1cc2nccc(Oc3ccc(NC(=O)c4c5n(cc(C6=CCOCC6)c4=O)CCOC5)cc3)c2nc1OC` [Compound G1-8, 7-(3,6-Dihydro-2H-pyran-4-yl)-N-[4-[(6,7-dimethoxy-1,5-naphthyridin-4-yl)oxy]phenyl]-8-oxo-3,4-dihydro-1H-pyrido[2,1-c][1,4]oxazine-9-carboxamide] showed a half-inhibitory concentration (IC50) of no more than 100 nM.

Molecule `COc1cc2nccc(Oc3ccc(NC(=O)c4c(C)n(C)c(C)c(N5CCCC5)c4=O)cc3F)c2nc1OC` [Compound 89, N-[4-[(6,7-Dimethoxy-1,5-naphthyridin-4-yl)oxy]-3-fluorophenyl]-1,2,6-trimethyl-4-oxo-5-pyrrolidin-1-ylpyridine-3-carboxamide] returned an IC50 of no more than 100 nM.

Take `COc1cc2nccc(Oc3ccc(NC(=O)c4cnc(C)c(/C=C/CC(C)C)c4O)cc3F)c2nc1OC` [Compound 28, N-[4-[(6,7-Dimethoxy-1,5-naphthyridin-4-yl)oxy]-3-fluorophenyl]-4-hydroxy-6-methyl-5-[(E)-4-methylpent-1-enyl]pyridine-3-carboxamide]: the half-inhibitory concentration (IC50) is no more than 100 nM.
